The values below come from PubChem BioAssay AID743039 (Broad Institute, 2013).

Calls of active or inactive are those of the source.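 Rule for the calls: active = fitted curve rises past 0.47 at a concentration no higher than the top valid tested dose; inconclusive = flat curve at a moderate level, or poor fit; inactive = the rest, including signal moving the wrong way.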

The series has as its system compound-only thermal shift, SYPRO orange fluorescence, no protein. The experiment in a line: dye fluorescence signal without protein – biophysical, SYPRO orange, qPCR instrument, dry powder samples, artefact control for FGF22 binder project, dose response (AID 743039). The settings on record: at 0.16 µM.
As for `CC(=O)Nc1cccc(C(=O)N/N=C/c2c[nH]c3ccccc23)c1`, the thermal shift signal, higher = interference was 0.019% (inactive).
On to `Clc1ccc(Nc2ccc(NCc3ccccc3)nn2)cc1`, for which the thermal shift signal, higher = interference is -0.178% (inactive).
For `O=C(N/N=C/c1cccc(Oc2ccccc2)c1)c1cccc(O)c1`, the thermal shift signal, higher = interference was -0.026% (inactive).
For `COC(=O)C1=C(CS(=O)(=O)c2cc(OC)ccc2OC)NC(=O)NC1c1ccc(O)c(OC)c1` (stereo not given), the thermal shift signal, higher = interference is -0.182% (inactive).
Next, `O=C(Nc1ccc(S(=O)(=O)N2CCOCC2)cc1)c1ccc(F)cc1`: -0.05% (inactive); `CCOc1cccc(C(=O)Nc2ccc3[nH]ncc3c2)c1`: -0.066% (inactive); `CCN1C(=O)C(CC(=O)Nc2ccc(F)cc2)N(Cc2ccc3c(c2)OCO3)C1=S` (stereo not given): -0.165% (inactive).
Then `O=C(Nc1ccc(S(=O)(=O)N2CCCC2)cc1)c1ccccc1`, with -0.209% (inactive); and `O=C(NCCc1c[nH]c2ccccc12)c1ccc(Cl)cc1`, with 0.048% (inactive); and `CC(=O)Nc1cccc(NC(=O)c2ccc3[nH]c(C)c(C)c3c2)c1`, with -0.227% (inactive).
For `O=S(=O)(Nc1nnc(C(F)(F)F)s1)c1ccc(Cl)cc1`, the thermal shift signal, higher = interference is -0.081% (inactive).
Consider `O=C(N/N=C/c1c[nH]c2ccccc12)c1cccs1`, for which the thermal shift signal, higher = interference was -0.182% (inactive).
Next, `O=C(Nc1ccc(S(=O)(=O)N2CCCC2)cc1)c1cccs1`: -0.157% (inactive); `Cc1ccc(S(=O)(=O)N2C[C@H](O)COC[C@H]3O[C@H](CC(=O)NCc4ccc(Cl)c(Cl)c4)CC[C@@H]32)cc1`: 0.168% (inactive); `CCN1C/C(=C/c2cccs2)c2nc3ccccc3c(C(=O)O)c2C1`: 0.048% (inactive).
On to `O=S1(=O)N=C(N(Cc2cccs2)c2ccc(O)cc2)c2ccccc21`, for which the thermal shift signal, higher = interference is 0.057% (inactive).
For `O=C(Nc1cc(Cl)cc(Cl)c1)N[C@@H]1CC[C@@H](CCNS(=O)(=O)c2cccc(F)c2)O[C@@H]1CO`, the thermal shift signal, higher = interference is 0.004% (inactive).
Take `COc1cc(/C=N/NC(=O)c2cc3ccccc3[nH]2)ccc1O`: the thermal shift signal, higher = interference was -0.114% (inactive).
For `COc1ccc(C)cc1NS(=O)(=O)c1ccc(NS(=O)(=O)c2ccc(NC(C)=O)cc2)cc1`, the thermal shift signal, higher = interference was -0.005% (inactive).
As to `COc1ccc(-c2nc(-c3ccc(O)cc3O)cs2)cc1OC`, the thermal shift signal, higher = interference is 0.011% (inactive).
Regarding `Cc1[nH]c2ccccc2c1C(=O)NS(=O)(=O)Nc1ccc(Cl)cc1`, the thermal shift signal, higher = interference was -0.148% (inactive).
Then `O=C(Nc1cc(Cl)cc(Cl)c1)N[C@@H]1CC[C@@H](CCNS(=O)(=O)c2cccc(F)c2)O[C@H]1CO`, with 0.061% (inactive).
`O=C(N/N=C/c1c[nH]c2ccccc12)c1cccc(Cl)c1`: the thermal shift signal, higher = interference is 0.069% (inactive).
With `CC(=O)c1ccc(NC(=O)Nc2cccnc2)cc1`, the thermal shift signal, higher = interference is 0.235% (inactive).
`COC(=O)C[C@H]1CC[C@@H]2[C@@H](COc3ccc(NC(=O)Nc4cccc(C#N)c4)cc3C(=O)N2C)O1`: the thermal shift signal, higher = interference was 0.097% (inactive).
Consider `Cc1ccc(S(=O)(=O)N2C[C@@H](O)COC[C@@H]3O[C@@H](CC(=O)NCc4ccc(Cl)c(Cl)c4)CC[C@H]32)cc1`, for which the thermal shift signal, higher = interference was 0.045% (inactive).
Next, `O=C(O)Cc1ccc(NC(=O)c2ccc(Cl)c(Cl)c2)cc1`: 0.188% (inactive); `Nc1ccc(C(=O)N/N=C/c2c[nH]c3ccccc23)cc1`: 0.042% (inactive).
Regarding `CC(=O)Nc1ccc(NC(=O)Nc2ccccc2)cc1`, the thermal shift signal, higher = interference is 0.246% (inactive).
For the molecule `O=C(N/N=C/c1c[nH]c2ccccc12)c1cccc(O)c1`, the thermal shift signal, higher = interference was 0.355% (inactive).
With `CSc1ccc(/C=N/NC(=O)c2ccc3nc[nH]c3c2)cc1`, the thermal shift signal, higher = interference is 0.305% (inactive).
As for `O=C(C[C@H]1CC[C@@H]2[C@H](COC[C@H](O)CN2S(=O)(=O)c2cccc(Cl)c2)O1)Nc1ccccc1`, the thermal shift signal, higher = interference is -0.063% (inactive).
`Nc1cccc(-c2nc3ccc(C(=O)c4ccccc4)cc3[nH]2)c1`: the thermal shift signal, higher = interference is 0.145% (inactive).
With `COc1ccc(Nc2nc3ccc(OC)cc3s2)cc1`, the thermal shift signal, higher = interference was 0.188% (inactive).
Regarding `Cc1[nH]c2ccc(C(=O)OCC(=O)Nc3cccc(S(N)(=O)=O)c3)cc2c1C`, the thermal shift signal, higher = interference is -0.322% (inactive).
With `O=C(N/N=C/c1c[nH]c2ccccc12)c1ccc(O)c(O)c1`, the thermal shift signal, higher = interference was 0.065% (inactive).
Regarding `O=C(Nc1ccc(Cl)cc1)N[C@@H]1CC[C@@H](CCNS(=O)(=O)c2ccccc2F)O[C@H]1CO`, the thermal shift signal, higher = interference is -0.043% (inactive).
In the case of `O=C(Nc1nccs1)C1CC(=O)N(c2ccc(F)cc2)C1` (stereo not given), the thermal shift signal, higher = interference is -0.148% (inactive).
For `CCCNC(=O)COC(=O)c1ccccc1C(=O)N(C)C1CCCCC1`, the thermal shift signal, higher = interference was -0.157% (inactive).
`O=C(N/N=C/c1ccc(C(F)(F)F)cc1)c1ccc(O)cc1`: the thermal shift signal, higher = interference was -0.028% (inactive).
`Cc1cc(NC(=O)Nc2ccc3c(ccn3C)c2)sn1`: the thermal shift signal, higher = interference was 0.052% (inactive).
As to `Cc1cc(C(=O)N/N=C/c2c[nH]c3ccccc23)cs1`, the thermal shift signal, higher = interference was 0.145% (inactive).
Take `Cc1ccc(OCCCC(=O)Nc2ccc(S(=O)(=O)N3CCOCC3)cc2)cc1`: the thermal shift signal, higher = interference is -0.12% (inactive).
With `CC(C)c1c(C(=O)N/N=C/c2c[nH]c3ccccc23)nnn1-c1nonc1N`, the thermal shift signal, higher = interference was -0.009% (inactive).
As to `COC(=O)C[C@H]1CC[C@@H]2[C@@H](COc3ccc(NC(=O)Nc4ccc(C#N)cc4)cc3C(=O)N2C)O1`, the thermal shift signal, higher = interference is 0.237% (inactive).
With `CCc1cc(-c2[nH]ncc2-c2ccc3c(c2)OCCO3)c(O)cc1O`, the thermal shift signal, higher = interference is -0.049% (inactive).
Next, `Cc1ccn(-c2ccc(NC(=O)c3cccs3)cc2)n1`: -0.057% (inactive); `CCc1cc(-c2n[nH]c(C)c2-c2ccc3c(c2)OCCO3)c(O)cc1O`: -0.093% (inactive); `CCNC(=O)C[C@@H]1CC[C@H]2[C@H](COc3ccc(NC(=O)Nc4ccc(Cl)cc4)cc3C(=O)N2C)O1`: 0.052% (inactive).
With `CN(Cc1c(C(=O)N/N=C/c2ccc(O)cc2)nnn1-c1nonc1N)c1ccccc1`, the thermal shift signal, higher = interference is -0.045% (inactive).
